Assay results from patent US12582633B2 (priority 2020, dated 2026).
Values after ≈ are worked out from the molar mass of the structure shown. Values joined by “and” are separate entries in the source; they are usually repeats but may differ in a detail not shown here. Equal entries are not always repeated.

How the values were obtained:
SARS-CoV-2 = test: microbe, parasite or virus in culture; format: cell-based

O=C1CN(/N=C/c2ccc(-c3ccc([N+](=O)[O-])cc3)o2)C(O)=N1 [dantrolene]
Day 2 Read (CPE) (SARS-CoV-2): 3/3 wells had No CPE and 3/3 wells had > 90% CPE and 3/3 wells had sparse | Day 4 Read (CPE) (SARS-CoV-2): 3/3 wells had No CPE and 2/3 wells had > 90% CPE and 1/3 wells had > 90% CPE and 3/3 wells had > 90% CPE and 3/3 wells had sparse | Day 6 Read (CPE) (SARS-CoV-2): 3/3 wells had No CPE and 2/3 wells had > 90% CPE and 1/3 wells had > 90% CPE and 3/3 wells had > 90% CPE and 3/3 wells had sparse | MIC (SARS-CoV-2; Severe acute respiratory syndrome coronavirus 2, read-out: minimum inhibitory concentration): 20 µM (≈ 6.29 µg/mL) | cell viability of uninfected Vero E6 cells (Vero E6 cells): good cell viability
